For one series, the system named is HCV Replicon 1b. Description: HCV inhibition assay, HCV replicon 1b (Clone A or ET-lunet cells; RT-PCR or luciferase reporter). The settings on record: Hepatitis C virus, 96 h, HCV replicon 1b; 4 days incubation; read-out: Replicon 1b potency EC90. Format: cell-based. How it is done:
HCV inhibition assay. Clone A or ET-lunet cells were seeded at a density of 1500 or 3000 cells per well in a 96-well plate, respectively. Test compounds serially diluted in culture medium without G418 were added to cells so that the final DMSO concentration was 0.5%. Plates were incubated at 37° C. in a 5% CO2 atmosphere for 4 days. Inhibition of HCV RNA replication was determined by real time PCR (RT-PCR) or by measuring the levels of luminescence expressed via the luciferase reporter gene encoded within the ET replicon. Briefly, for the RT-PCR assay, total RNA was extracted using the RNeasy-96 kit as recommended by the manufacturer (Qiagen, Valencia, Calif.), reversed transcribed into cDNA, and amplified using primer and probe mix for HCV 5′-NTR RNA and human ribosomal RNA (rRNA) in a one-step RT-PCR reaction as described previously (50). A relative quantification method was used to determine the extent of inhibition. The threshold cycle (Ct) of rRNA was subtracted from the Ct of HCV RNA (ΔCt). The average ΔCt of the DMSO cell controls was then subtracted from the ΔCt of the compound treated sample (ΔΔCt). Percent inhibition was determined by using the following equation: %=(1−(2^−ΔΔC^t))×100. For the luciferase-based replicon assay, luminescence was measured by using a Victor3 plate reader (Perkin-Elmer, Boston, Mass.) following the addition of Bright-Glo reagent as recommended by the manufacturer (Promega, Madison, Wis.). Percent inhibition of HCV replication was determined by comparing the change in luminescence of the drug treated wells versus the DMSO cell controls. EC50 and EC90 values, the concentrations at which 50% and 90% inhibition were achieved, were determined using the GraphPad Prism software (San Diego, Calif.).

Series [1] is described as follows: Cell cytotoxicity assay (MTS), CC90 as reported in Table 1, cell line not stated. The settings on record: human, cell line not given. Format: cell-based. Here is the method: Cell cytotoxicity assays. Each compound (serially diluted from 100 μM) was added to Huh7 (2×10^3 cells/well), HepG2 (2×10^3 cells/well), BxPC3 (2×10^3 cells/well), or CEM (5×10^3 cells/well) cells and allowed to incubate for 8 days at 37° C. A medium only control was used to determine the minimum absorbance value […]. At the end of the growth period, MTS dye from the CellTiter 96 Aqueous One Solution Cell Proliferation Assay kit (Promega) was added to each well and the plate was incubated for an additional 2 hours. The absorbance at 490 nm was read with a Victor3 plate reader (Perkin Elmer) using the medium only control wells as blanks. The 90% inhibition value (CC90) was determined by comparing the absorbance in wells containing cells and test compound to untreated cell control wells.

The term EC90 denotes the point of the concentration-response curve where the effect stands at 90%. Regarding `CSCCC1C(=O)N[C@@H](c2ccccc2)CN1C(=O)c1cc(-c2ccc(F)cc2)on1` (stereo in doubt) [Compound 458, (3R,6S)-4-(5-(4-fluorophenyl)isoxazole-3-carbonyl)-3-((methylthio)ethyl)-6-phenylpiperazin-2-one], in the series on HCV Replicon 1b, the EC90 was 2.07 µM. Also, in series [1] (MTS assay, 8 days incubation), the CC90 at 8 days was > 10 µM.
Regarding `CC(C)C[C@H]1C(=O)NC(c2ccccc2)N1C(=O)[C@H]1C[C@@H]1c1ccccc1` (stereo in doubt) [Compound 531, (2R,5S)-5-isobutyl-2-phenyl-1-((1S,2S)-2-phenylcyclopropanecarbonyl)imidazolidin-4-one], in the series on HCV Replicon 1b, the 90% effect concentration (EC90) is > 10 µM. For the same compound, in series [1] (MTS assay, 8 days incubation), the CC90 at 8 days was > 10 µM.
Take `CC(C)C[C@H]1C(=O)NC(c2ccccc2)N1C(=O)[C@H]1C[C@@H]1c1ccc(F)cc1` (stereo in doubt) [Compound 533, (2R,5S)-1-((1S,2S)-2-(4-fluorophenyl)cyclopropane-carbonyl)-5-isobutyl-2-phenyl-imidazolidin-4-one]: the EC90 in the series with HCV Replicon 1b is > 10 µM. The CC90 at 8 days in series [1] (MTS assay, 8 days incubation) was > 10 µM.
As to `CC(C)C[C@H]1CN(C(=O)[C@@H]2C[C@H]2c2ccccc2)[C@@H](CC(C)C)C(=O)N1` [Compound 70], the EC90 with HCV Replicon 1b was 0.8 µM. Besides, the CC90 at 8 days in series [1] was > 10 µM.
On to `CC(C)C[C@H]1CN(C(=O)/C=C/c2ccc(Cl)cc2)[C@@H](CC(C)C)C(=O)N1` [Compound 72], for which, in the series on HCV Replicon 1b, the EC90 was 2.5 µM. For the same compound, the CC90 at 8 days in series [1] was > 10 µM.
Taken in the same sequence, the figures for `CC(C)C[C@H]1CN(C(=O)/C=C/c2ccc(C(F)(F)F)cc2)[C@@H](CC(C)C)C(=O)N1` [Compound 73] were 3.34 µM and > 10 µM.
In the case of `CC(C)C[C@H]1CN(C(=O)/C=C/c2cccnc2)[C@@H](CC(C)C)C(=O)N1` [Compound 74], the 90% effect concentration (EC90) with HCV Replicon 1b was > 10 µM. Besides, the CC90 at 8 days in series [1] is > 10 µM.
With `C/C(=C\C(=O)N1C[C@H](CC(C)C)NC(=O)[C@@H]1CC(C)C)c1ccccc1` [Compound 75], the EC90 in the series on HCV Replicon 1b was > 10 µM. Also, the CC90 at 8 days in series [1] was > 10 µM.
With `CC(C)C[C@H]1CN(C(=O)c2cc3ccccc3o2)[C@@H](CC(C)C)C(=O)N1` [Compound 76], in the series with HCV Replicon 1b, the EC90 turned out to be 9.18 µM. The CC90 at 8 days in series [1] was > 10 µM.
In the case of `CC(C)C[C@H]1CN(C(=O)/C=C/c2ccccc2)[C@@H](CC(C)C)C(=O)N1` [Compound 77], the 90% effect concentration (EC90) in the series on HCV Replicon 1b came to 3.24 µM. Besides, the CC90 at 8 days in series [1] was > 10 µM.
In the case of `C/C(=C\c1ccccc1)C(=O)N1C[C@H](CC(C)C)NC(=O)[C@@H]1CC(C)C` [Compound 78], the EC90 in the series with HCV Replicon 1b came to 9.93 µM. In addition, the CC90 at 8 days in series [1] was > 10 µM.
Regarding `Cc1ccc(/C=C/C(=O)N2C[C@H](CC(C)C)NC(=O)[C@@H]2CC(C)C)cc1` [Compound 79], the EC90 in the series with HCV Replicon 1b is 5.29 µM. Moreover, the CC90 at 8 days in series [1] was > 10 µM.
As to `CC(C)C[C@H]1CN(C(=O)/C=C/c2ccc(F)cc2)[C@@H](CC(C)C)C(=O)N1` [Compound 80], the EC90 with HCV Replicon 1b worked out at 2.49 µM. For the same compound, the CC90 at 8 days in series [1] was > 10 µM.
With `CC(C)C[C@H]1CN(C(=O)/C=C/c2ccc(Cl)c(Cl)c2)[C@@H](CC(C)C)C(=O)N1` [Compound 81], the EC90 in the series on HCV Replicon 1b came to 7.31 µM. Besides, the CC90 at 8 days in series [1] was > 10 µM.
With `CC(C)C[C@H]1CN(C(=O)/C=C/c2ccc(F)c(F)c2)[C@@H](CC(C)C)C(=O)N1` [Compound 82], in the series on HCV Replicon 1b, the EC90 is 1.22 µM. Besides, the CC90 at 8 days in series [1] is > 10 µM.
Turning to `CC(C)C[C@H]1CN(C(=O)/C=C/c2cccc(F)c2)[C@@H](CC(C)C)C(=O)N1` [Compound 83], the 90% effect concentration (EC90) in the series on HCV Replicon 1b is 2.91 µM. Moreover, in series [1], the CC90 at 8 days was > 10 µM.
With `CC(C)C[C@H]1CN(C(=O)/C=C/c2cc(F)c(F)c(F)c2)[C@@H](CC(C)C)C(=O)N1` [Compound 84], the EC90 with HCV Replicon 1b is 2.64 µM. Moreover, the CC90 at 8 days in series [1] was > 10 µM.
Taken in the same sequence, the figures for `CC(C)C[C@H]1CN(C(=O)/C=C/c2ccc(F)c(Cl)c2)[C@@H](CC(C)C)C(=O)N1` [Compound 85] were 8.65 µM and > 10 µM.
Taken in the same sequence, the figures for `CC(C)C[C@H]1CN(C(=O)/C=C/c2ccc(Cl)cc2F)[C@@H](CC(C)C)C(=O)N1` [Compound 86] were 0.59 µM and > 10 µM.
Consider `CC(C)C[C@H]1CN(C(=O)/C=C/c2ccc(F)cc2F)[C@@H](CC(C)C)C(=O)N1` [Compound 87], for which the EC90 with HCV Replicon 1b came to 0.57 µM. In series [1], the CC90 at 8 days is > 10 µM.
With `Cc1cccc(C)c1NC(=O)CN1C[C@H](CC(C)C)NC(=O)[C@@H]1CC(C)C` [Compound 88], the EC90 in the series with HCV Replicon 1b was > 10 µM. Also, the CC90 at 8 days in series [1] is > 10 µM.
For `CC(C)C[C@H]1CN(C(=O)c2ccc(Oc3ccccc3)cc2)[C@@H](CC(C)C)C(=O)N1` [Compound 89], in the series with HCV Replicon 1b, the EC90 was 6.88 µM. The CC90 at 8 days in series [1] was > 10 µM.
Turning to `CC(C)C[C@H]1CN(C(=O)/C=C/c2ccc3c(c2)OCO3)[C@@H](CC(C)C)C(=O)N1` [Compound 90], in the series with HCV Replicon 1b, the 90% effect concentration (EC90) is 7.72 µM. For the same compound, the CC90 at 8 days in series [1] is > 10 µM.
Taken in the same sequence, the figures for `CC(C)C[C@H]1CN(C(=O)/C=C/c2ccc([N+](=O)[O-])cc2)[C@@H](CC(C)C)C(=O)N1` [Compound 91] were > 10 µM and > 10 µM.
As to `CC(C)C[C@H]1CN(C(=O)/C=C/c2ccc(S(C)(=O)=O)cc2)[C@@H](CC(C)C)C(=O)N1` [Compound 92], the 90% effect concentration (EC90) in the series on HCV Replicon 1b was > 10 µM. In addition, in series [1], the CC90 at 8 days is > 10 µM.
As to `CC(C)C[C@H]1CN(C(=O)/C=C/c2ccc(C(F)(F)F)cc2F)[C@@H](CC(C)C)C(=O)N1` [Compound 93], in the series with HCV Replicon 1b, the concentration for an effect of 90% (EC90) is 9.62 µM. In series [1], the CC90 at 8 days was > 10 µM.
Consider `CC(C)C[C@H]1CN(C(=O)/C=C/c2ccc(-c3ccccc3)cc2)[C@@H](CC(C)C)C(=O)N1` [Compound 94], for which the 90% effect concentration (EC90) in the series on HCV Replicon 1b stood at 8.37 µM. Further, in series [1], the CC90 at 8 days is > 10 µM.
Taken in the same sequence, the figures for `CC(C)C[C@H]1CN(C(=O)/C=C/c2cc(F)cc(F)c2)[C@@H](CC(C)C)C(=O)N1` [Compound 95] were 9.31 µM and > 10 µM.
`CCC[C@H]1CN(C(=O)/C=C/c2ccc(F)cc2F)[C@@H](CC(C)C)C(=O)N1` [Compound 96]: the concentration for an effect of 90% (EC90) with HCV Replicon 1b worked out at 1.11 µM. The CC90 at 8 days in series [1] is > 10 µM.
As for `CC(C)C[C@H]1CN(C(=O)c2ccc(-c3ccccc3)o2)[C@@H](CC(C)C)C(=O)N1` [Compound 97], the EC90 in the series with HCV Replicon 1b worked out at 7.28 µM. In series [1], the CC90 at 8 days was > 10 µM.
Turning to `CC(C)C[C@H]1CN(C(=O)c2csc(-c3ccccc3)n2)[C@@H](CC(C)C)C(=O)N1` [Compound 98], in the series on HCV Replicon 1b, the concentration for an effect of 90% (EC90) was 7.92 µM. In addition, the CC90 at 8 days in series [1] was > 10 µM.
Regarding `CC(C)C[C@H]1CN(C(=O)c2coc(-c3ccccc3)n2)[C@@H](CC(C)C)C(=O)N1` [Compound 99], the EC90 with HCV Replicon 1b is > 10 µM. In series [1], the CC90 at 8 days is > 10 µM.
Take `CC(C)C[C@H]1CN(C(=O)c2cc(-c3ccccc3)[nH]n2)[C@@H](CC(C)C)C(=O)N1` [Compound 100]: the EC90 in the series with HCV Replicon 1b was > 10 µM. In series [1], the CC90 at 8 days is > 10 µM.
Consider `CC(C)C[C@H]1CN(C(=O)c2c[nH]c(-c3ccccc3)n2)[C@@H](CC(C)C)C(=O)N1` [Compound 101], for which the EC90 with HCV Replicon 1b was > 10 µM. For the same compound, the CC90 at 8 days in series [1] is > 10 µM.
On to `CC(C)C[C@H]1CN(C(=O)c2cn(-c3ccccc3)cn2)[C@@H](CC(C)C)C(=O)N1` [Compound 102], for which, in the series with HCV Replicon 1b, the 90% effect concentration (EC90) was > 10 µM. In addition, the CC90 at 8 days in series [1] was > 10 µM.
Take `CC(C)C[C@H]1CN(C(=O)c2cn(-c3ccc(F)cc3)cn2)[C@@H](CC(C)C)C(=O)N1` [Compound 103]: in the series with HCV Replicon 1b, the EC90 is 8.64 µM. The CC90 at 8 days in series [1] was > 10 µM.
Consider `CC(C)C[C@H]1CN(C(=O)c2cnn(-c3ccc(F)cc3)c2)[C@@H](CC(C)C)C(=O)N1` [Compound 104], for which, in the series with HCV Replicon 1b, the EC90 amounted to 4.74 µM. Besides, in series [1], the CC90 at 8 days was > 10 µM.
Turning to `CC(C)C[C@H]1CN(C(=O)c2cc(-c3ccc(Cl)cc3)ns2)[C@@H](CC(C)C)C(=O)N1` [Compound 105], the 90% effect concentration (EC90) in the series on HCV Replicon 1b was 1.49 µM. Also, the CC90 at 8 days in series [1] was > 10 µM.
Taken in the same sequence, the figures for `CC(C)C[C@H]1CN(C(=O)c2cc(C3CC3)on2)[C@@H](CC(C)C)C(=O)N1` [Compound 106] were 8.77 µM and > 10 µM.
Consider `CC(C)C[C@H]1C(=O)N[C@@H](C2CCCC2)CN1C(=O)[C@@H]1C[C@H]1c1ccc(Br)cc1` [Compound 332, (3S,6S)-6-cyclopentyl-4-((1R,2R)-2-(4-bromophenyl)cyclopropanecarbonyl)-3-isobutylpiperazin-2-one], for which, in the series with HCV Replicon 1b, the 90% effect concentration (EC90) amounted to 1.31 µM.

Source of the values: US20120202794A1 (priority 2011, published 2012).
